Assay results reported in PubChem BioAssay AID1259407 (Chemical Carcinogenesis Research Information System (CCRIS), 2018).
The source made the active and inactive calls. No rule for the calls is given here.

System: CCRIS mutagenicity, Ames/micronucleus/aberration tests
Assay: CCRIS mutagenicity studies
[1] = Test System: AMES SALMONELLA TYPHIMURIUM, Strain/Indicator: TA97, Metabolic Activation: NONE, Method: STANDARD PLATE
[2] = Test System: AMES SALMONELLA TYPHIMURIUM, Strain/Indicator: TA98, Metabolic Activation: NONE, Method: STANDARD PLATE
[3] = Test System: AMES SALMONELLA TYPHIMURIUM, Strain/Indicator: TA98, Metabolic Activation: RAT, LIVER, S-9, AROCLOR 1254, Method: STANDARD PLATE
[4] = Test System: AMES SALMONELLA TYPHIMURIUM, Strain/Indicator: TA100, Metabolic Activation: NONE, Method: STANDARD PLATE
[5] = Test System: AMES SALMONELLA TYPHIMURIUM, Strain/Indicator: TA100, Metabolic Activation: RAT, LIVER, S-9, AROCLOR 1254, Method: STANDARD PLATE
[6] = Test System: AMES SALMONELLA TYPHIMURIUM, Strain/Indicator: TA102, Metabolic Activation: NONE, Method: STANDARD PLATE

c1ccc2cc3ccccc3cc2c1
mutagenic call (End Point: In vitro chromosomal aberrations, Test System: Chinese hamster lung (CHL/IU) cells, Metabolic Activation: Rat, Liver, S9, Phenobarbital and 5,6-benzoflavone): active; positive (structural changes and ploidy). weak response for ploidy. | mutagenic call [1]: inactive; negative | mutagenic call (Test System: AMES SALMONELLA TYPHIMURIUM, Strain/Indicator: TA97, Metabolic Activation: RAT, LIVER, S-9, PCB, Method: STANDARD PLATE): active; positive | mutagenic call (Test System: AMES SALMONELLA TYPHIMURIUM, Strain/Indicator: TA98, Metabolic Activation: NONE, Method: PREINCUBATION): inactive; negative | mutagenic call [2]: inactive; negative | mutagenic call (Test System: AMES SALMONELLA TYPHIMURIUM, Strain/Indicator: TA98, Metabolic Activation: RAT LIVER S-9, PHENOBARBITAL AND BETA-NAPHTHOFLAVONE, Method: PREINCUBATION): inactive; negative | mutagenic call [3]: inactive; negative | mutagenic call (Test System: AMES SALMONELLA TYPHIMURIUM, Strain/Indicator: TA98, Metabolic Activation: RAT, LIVER, S-9, PCB, Method: STANDARD PLATE): inactive; negative | mutagenic call [4]: inactive; negative | mutagenic call (Test System: AMES SALMONELLA TYPHIMURIUM, Strain/Indicator: TA100, Metabolic Activation: RAT LIVER S-9, PHENOBARBITAL AND BETA-NAPHTHOFLAVONE, Method: PREINCUBATION): inactive; negative | mutagenic call [5]: inactive; negative | mutagenic call (Test System: AMES SALMONELLA TYPHIMURIUM, Strain/Indicator: TA100, Metabolic Activation: RAT, LIVER, S-9, PCB, Method: STANDARD PLATE): inactive; negative | mutagenic call (Test System: AMES SALMONELLA TYPHIMURIUM, Strain/Indicator: TA1535, Metabolic Activation: NONE, Method: PREINCUBATION): inactive; negative | mutagenic call (Test System: AMES SALMONELLA TYPHIMURIUM, Strain/Indicator: TA1535, Metabolic Activation: RAT LIVER S-9, PHENOBARBITAL AND BETA-NAPHTHOFLAVONE, Method: PREINCUBATION): inactive; negative | mutagenic call (Test System: AMES SALMONELLA TYPHIMURIUM, Strain/Indicator: TA1537, Metabolic Activation: NONE, Method: PREINCUBATION): inactive; negative | mutagenic call (Test System: AMES SALMONELLA TYPHIMURIUM, Strain/Indicator: TA1537, Metabolic Activation: RAT LIVER S-9, PHENOBARBITAL AND BETA-NAPHTHOFLAVONE, Method: PREINCUBATION): inactive; negative | mutagenic call (Test System: AMES SALMONELLA TYPHIMURIUM, Strain/Indicator: TA1538, Metabolic Activation: NONE, Method: PREINCUBATION): inactive; negative | mutagenic call (Test System: AMES SALMONELLA TYPHIMURIUM, Strain/Indicator: TA1538, Metabolic Activation: RAT LIVER S-9, PHENOBARBITAL AND BETA-NAPHTHOFLAVONE, Method: PREINCUBATION): inactive; negative | mutagenic call (Test System: E. COLI, Strain/Indicator: WP2 UVRA, Metabolic Activation: HAMSTER, LIVER, S-9, AROCLOR 1254, Method: STANDARD PLATE): inactive; negative | mutagenic call (Test System: E. COLI, Strain/Indicator: WP2 UVRA, Metabolic Activation: HAMSTER, LIVER, S-9, Method: STANDARD PLATE): inactive; negative | mutagenic call (Test System: E. COLI, Strain/Indicator: WP2 UVRA, Metabolic Activation: MOUSE, LIVER, S-9, AROCLOR 1254, Method: STANDARD PLATE): inactive; negative | mutagenic call (Test System: E. COLI, Strain/Indicator: WP2 UVRA, Metabolic Activation: MOUSE, LIVER, S-9, Method: STANDARD PLATE): inactive; negative | mutagenic call (Test System: E. COLI, Strain/Indicator: WP2 UVRA, Metabolic Activation: NONE, Method: STANDARD PLATE): inactive; negative | mutagenic call (Test System: E. COLI, Strain/Indicator: WP2 UVRA, Metabolic Activation: RAT, LIVER, S-9, AROCLOR 1254, Method: STANDARD PLATE): inactive; negative | mutagenic call (Test System: E. COLI, Strain/Indicator: WP2 UVRA, Metabolic Activation: RAT, LIVER, S-9, Method: STANDARD PLATE): inactive; negative | mutagenic call (Test System: E.COLI, Strain/Indicator: WP2UVRA, Metabolic Activation: NONE, Method: PREINCUBATION): inactive; negative | mutagenic call (Test System: E.COLI, Strain/Indicator: WP2UVRA, Metabolic Activation: RAT LIVER S-9, PHENOBARBITAL AND BETA-NAPHTHOFLAVONE, Method: PREINCUBATION): inactive; negative | mutagenic call (Test System: MOUSE LYMPHOMA, Strain/Indicator: L5178Y (TK+/TK-), Metabolic Activation: NONE, Method: SUSPENSION/PLATE): inactive; negative | mutagenic call (Test System: MOUSE LYMPHOMA, Strain/Indicator: L5178Y (TK+/TK-), Metabolic Activation: RAT, LIVER, S-9, AROCLOR 1254, Method: SUSPENSION/PLATE): active; positive | mutagenic call (Test System: MOUSE LYMPHOMA, Strain/Indicator: L5178Y (TK+/TK-), Metabolic Activation: RAT, LIVER, S-9, Method: SUSPENSION/PLATE): active; positive

Nc1ccc2cccc3c2c1-c1ccccc1-3
mutagenic call (Test System: AMES SALMONELLA TYPHIMURIUM, Strain/Indicator: TA98, Metabolic Activation: RAT, LIVER, S-9, AROCLOR 1254 (2 OR 4%), Method: STANDARD PLATE): active; positive | mutagenic call (Test System: AMES SALMONELLA TYPHIMURIUM, Strain/Indicator: TA100, Metabolic Activation: RAT, LIVER, S-9, AROCLOR 1254 (4%), Method: STANDARD PLATE): active; positive | mutagenic call (Test System: AMES SALMONELLA TYPHIMURIUM, Strain/Indicator: TA1535, Metabolic Activation: RAT, LIVER, S-9, AROCLOR 1254 (4%), Method: STANDARD PLATE): inactive; negative | mutagenic call (Test System: AMES SALMONELLA TYPHIMURIUM, Strain/Indicator: TA1537, Metabolic Activation: RAT, LIVER, S-9, AROCLOR 1254 (4%), Method: STANDARD PLATE): active; positive

CC(C)(C)C1=CC(=O)C=CC1=O
mutagenic call (Test System: AMES SALMONELLA TYPHIMURIUM, Strain/Indicator: TA97, Metabolic Activation: NONE, Method: PREINCUBATION): inactive; negative | mutagenic call (Test System: AMES SALMONELLA TYPHIMURIUM, Strain/Indicator: TA97, Metabolic Activation: RAT, LIVER, S-9, PCB, Method: PREINCUBATION): inactive; negative | mutagenic call [2]: inactive; negative | mutagenic call (Test System: AMES SALMONELLA TYPHIMURIUM, Strain/Indicator: TA98, Metabolic Activation: RAT, LIVER, S-9, AROCLOR 1254, Method: PREINCUBATION): inactive; negative | mutagenic call [3]: inactive; negative | mutagenic call (Test System: AMES SALMONELLA TYPHIMURIUM, Strain/Indicator: TA98, Metabolic Activation: RAT, LIVER, S-9, PCB, Method: PREINCUBATION): inactive; negative | mutagenic call [4]: inactive; negative | mutagenic call (Test System: AMES SALMONELLA TYPHIMURIUM, Strain/Indicator: TA100, Metabolic Activation: RAT, LIVER, S-9, AROCLOR 1254, Method: PREINCUBATION): inactive; negative | mutagenic call [5]: inactive; negative | mutagenic call (Test System: AMES SALMONELLA TYPHIMURIUM, Strain/Indicator: TA100, Metabolic Activation: RAT, LIVER, S-9, PCB, Method: PREINCUBATION): inactive; negative | mutagenic call (Test System: AMES SALMONELLA TYPHIMURIUM, Strain/Indicator: TA102, Metabolic Activation: NONE, Method: PREINCUBATION): inactive; negative | mutagenic call (Test System: AMES SALMONELLA TYPHIMURIUM, Strain/Indicator: TA102, Metabolic Activation: RAT, LIVER, S-9, PCB, Method: PREINCUBATION): inactive; negative | mutagenic call (Test System: CHINESE HAMSTER V-79, Strain/Indicator: V-79 (HGPRT)/6-THIOGUANINE, Metabolic Activation: NONE): inactive; negative | mutagenic call (Test System: CHINESE HAMSTER V-79, Strain/Indicator: V-79 (HGPRT)/6-THIOGUANINE, Metabolic Activation: RAT, LIVER, HEPATOCYTES): inactive; negative

CC1CS(=O)(=O)CCN1/N=C/c1ccc([N+](=O)[O-])o1 (stereo not given)
mutagenic call [1]: active; positive | mutagenic call [2]: inactive; negative | mutagenic call [4]: active; positive | mutagenic call [5]: active; positive | mutagenic call [6]: active; positive

O=C(O)c1cn(-c2ccc(F)cc2)c2cc(N3CCNCC3)c(F)cc2c1=O
mutagenic call [1]: inactive; negative | mutagenic call (Test System: AMES SALMONELLA TYPHIMURIUM, Strain/Indicator: TA97, Metabolic Activation: S-9, Method: STANDARD PLATE): inactive; negative | mutagenic call [2]: inactive; negative | mutagenic call (Test System: AMES SALMONELLA TYPHIMURIUM, Strain/Indicator: TA98, Metabolic Activation: S-9, Method: STANDARD PLATE): inactive; negative | mutagenic call [4]: inactive; negative | mutagenic call (Test System: AMES SALMONELLA TYPHIMURIUM, Strain/Indicator: TA100, Metabolic Activation: S-9, Method: STANDARD PLATE): inactive; negative | mutagenic call [6]: inactive; negative | mutagenic call (Test System: AMES SALMONELLA TYPHIMURIUM, Strain/Indicator: TA102, Metabolic Activation: S-9, Method: STANDARD PLATE): inactive; negative

c1ccc([C@H]2N[C@H]2c2ccccc2)cc1
mutagenic call [2]: inactive; negative | mutagenic call [4]: active; positive | mutagenic call (Test System: AMES SALMONELLA TYPHIMURIUM, Strain/Indicator: TA1537, Metabolic Activation: NONE, Method: STANDARD PLATE): inactive; negative

OCc1ccc(C(F)(F)F)cc1
mutagenic call [4]: inactive; negative
